Reference: PMC6352951, “Computationally driven discovery of phenyl(piperazin-1-yl)methanone derivatives as reversible monoacylglycerol lipase (MAGL) inhibitors” (Journal of Enzyme Inhibition and Medicinal Chemistry, 2019)
Read-outs that look alike come from different tables or passages of the source. Blank lines part the entries; values can stand above or below the compound they belong to.

How the values were obtained:
[1] = test system: breast MDA-MB-231 cancer cells; experiment: Cell viability assay; type: cell-based, human; details: 96 h, mean ± SD
Description: (§1) Human breast MDA-MB-231, colorectal HCT116 and ovarian CAOV3, OVCAR3, and SKOV3 cancer cells (from ATCC) were maintained at 37 °C in a humidified atmosphere containing 5% CO2 according to the supplier. Cells (5 × 10^2) were plated in 96-well culture plates. The day after seeding, vehicle or compounds were added at different concentrations to the medium. Compounds were added to the cell culture at a concentration ranging from 200 to 0.02 μM. Cell viability was measured after 96 h according to the supplier (Promega, cat. n° G7571) with a Tecan M1000 PRO instrument. IC50 values were calculated from logistical dose-response curves. Averages were obtained from triplicates and error bars are standard deviations.

[2] = test system: ovarian CAOV3 cancer cells; experiment: Cell viability assay; type: cell-based, human; details: 96 h, mean ± SD
Description: as §1

[3] = test system: ovarian OVCAR3 cancer cells; experiment: Cell viability assay; type: cell-based, human; details: 96 h, mean ± SD
Description: as §1

[4] = test system: colorectal HCT116 cancer cells; experiment: Cell viability assay; type: cell-based, human; details: 96 h, mean ± SD
Description: as §1

[5] = test system: ovarian SKOV3 cancer cells; experiment: Cell viability assay; type: cell-based, human; details: 96 h, mean ± SD
Description: as §1

Human recombinant MAGL = molecular target: T1, Human recombinant MAGL (Homo sapiens, UniProt Q99685); experiment: MAGL inhibition assay (4-NPA substrate, absorbance at 405 nm); type: biochemical
T1 construct: purchased Cayman Chemical
T1 sequence (Q99685 1-303): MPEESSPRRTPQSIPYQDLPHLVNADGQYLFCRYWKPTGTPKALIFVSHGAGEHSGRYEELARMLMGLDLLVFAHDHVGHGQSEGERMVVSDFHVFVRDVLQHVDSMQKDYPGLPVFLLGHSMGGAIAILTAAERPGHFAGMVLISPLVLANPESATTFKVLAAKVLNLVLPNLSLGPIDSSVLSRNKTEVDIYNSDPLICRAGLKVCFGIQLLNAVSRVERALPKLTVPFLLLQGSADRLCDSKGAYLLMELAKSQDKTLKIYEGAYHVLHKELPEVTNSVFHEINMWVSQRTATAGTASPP
Description: Compounds 1–3 were purchased from ChemBridge corporation, whereas compounds 4 and 5 were synthesized. Human recombinant MAGL, 4-nitrophenyl acetate substrate (4-NPA) and CAY10499 were purchased from Cayman Chemical. The IC50 values were generated in 96-well microtiter plates. The MAGL reaction was conducted at rt at a final volume of 200 µL in […] Tris buffer, pH 7.2, containing […] EDTA. A total of 150 µL of 4-NPA 133.3 µM was added to 10 µL of DMSO containing the appropriate amount of compound. The reaction was initiated by the addition of 40 µL of MAGL (11 ng/well) in such a way that the assay was linear over 30 min. The final concentration of the analyzed compounds ranged from 10 to 0.00001 µM for CAY10499 and from 200 to 0.0128 µM for the other compounds. After the reaction had proceeded for 30 min, absorbance values were then measured by using a VictorX3 PerkinElmer instrument at 405 nm. Two reactions were also run: one reaction containing no compounds and the second one containing neither inhibitor nor enzyme. To remove possible false positive results, a blank analysis was carried out for each compound concentration and the final absorbance results were obtained detracting the absorbance produced by the presence of all the components except MAGL in the same conditions.

[6] = test system: MDA-MB-231, HCT116, CAOV3, OVCAR3 and SKOV3 cancer cells; experiment: Cell viability assay, range over all tested cell lines; type: cell-based; details: Homo sapiens, 96 h
Description: as §1

[7] = 30 min reaction, no DTT, read-out: MAGL inhibition IC50

IC50 [1]: 82 ± 5 µM
IC50 [2]: 90 ± 6 µM
IC50 [3]: 52 ± 3 µM
IC50 [4]: 45 ± 3 µM
IC50 [5]: 38 ± 4 µM
SMILES: COc1nn(-c2ccc(NC(=O)OCc3ccccc3)c(C)c2)c(=O)o1 [CAY10499, reference compound]

IC50 (Human recombinant MAGL; [7]): 31.9 µM
SMILES: O=C(c1ccc(-c2ccccc2)cc1)N1CCN(c2cccc3ccc(O)cc23)CC1 [compound 5]

SMILES: O=C(c1ccc(-c2ccccc2)cc1)N1CCN(c2cccc(Cl)c2)CC1 [compound 1]
IC50 (Human recombinant MAGL; [7]): 23.3 µM

IC50 [6]: 31 to 72 µM
IC50 ([1]; Homo sapiens, MDA-MB-231): 59 ± 5 µM
IC50 ([2]; Homo sapiens, Caov-3): 51 ± 3 µM
IC50 ([3]; Homo sapiens, OVCAR-3): 72 ± 4 µM
IC50 ([4]; Homo sapiens, HCT-116): 48 ± 2 µM
IC50 ([5]; Homo sapiens, SK-OV-3): 31 ± 2 µM
IC50 (Human recombinant MAGL; [7]): 6.1 µM
IC50 (Human recombinant MAGL; in the presence of 10 μM DTT, read-out: MAGL inhibition IC50 in the presence of DTT): 6.2 µM
Fold improvement of MAGL inhibition activity with respect to compound 1 (Human recombinant MAGL; ratio of IC50 values vs compound 1): 4 fold
Fold higher MAGL inhibition activity than compound 5 (Human recombinant MAGL; ratio of IC50 values vs compound 5): 5 fold
SMILES: O=C(c1ccc(-c2cccc3ccc(O)cc23)cc1)N1CCN(c2cccc(Cl)c2)CC1 [compound 4]
Effect of preincubation time on MAGL inhibitory potency (reversibility) (Human recombinant MAGL; preincubated with the enzyme for 0, 30 and 60 min before adding substrate): did not show any significant increase in inhibitory potency at longer incubation times
